Experimental data as given in ChEMBL document CHEMBL4251615, “Discovery of anilino-furo[2,3-d]pyrimidine derivatives as dual inhibitors of EGFR/HER2 tyrosine kinase and their anticancer activity” (Eur J Med Chem, 2018).

Assays:
M14 = assay: Growth inhibition of human M14 cells assessed as cell growth at 10 uM incubated for 48 hrs by sulforhodamine B assay relative to control; format: functional; details: M14, 48 h, read-out: Activity
CAKI-1 = assay: Growth inhibition of human Caki1 cells assessed as cell growth at 10 uM incubated for 48 hrs by sulforhodamine B assay relative to control; format: functional; details: CAKI-1, 48 h, read-out: Activity
Malme-3M = assay: Growth inhibition of human MALME-3M cells assessed as cell growth at 10 uM incubated for 48 hrs by sulforhodamine B assay relative to control; format: functional; details: read-out: Activity
A549 = assay: Growth inhibition of human A549/ATCC cells assessed as cell growth at 10 uM incubated for 48 hrs by sulforhodamine B assay relative to control; format: functional; details: A549, 48 h, read-out: Activity
SW-620 = assay: Growth inhibition of human SW620 cells assessed as cell growth at 10 uM incubated for 48 hrs by sulforhodamine B assay relative to control; format: functional; details: SW-620, 48 h, read-out: Activity
HCC 2998 = assay: Growth inhibition of human HCC2998 cells assessed as cell growth at 10 uM incubated for 48 hrs by sulforhodamine B assay relative to control; format: functional; details: HCC 2998, 48 h, read-out: Activity
CCRF-CEM = assay: Growth inhibition of human CCRF-CEM cells assessed as cell growth at 10 uM incubated for 48 hrs by sulforhodamine B assay relative to control; format: functional; details: read-out: Activity
MOLT-4 = assay: Growth inhibition of human MOLT4 cells assessed as cell growth at 10 uM incubated for 48 hrs by sulforhodamine B assay relative to control; format: functional; details: MOLT-4, 48 h, read-out: Activity
MCF7 = assay: Growth inhibition of human MCF7 cells assessed as cell growth at 10 uM incubated for 48 hrs by sulforhodamine B assay relative to control; format: functional; details: MCF7, 48 h, read-out: Activity
PC-3 = assay: Growth inhibition of human PC3 cells assessed as cell growth at 10 uM incubated for 48 hrs by sulforhodamine B assay relative to control; format: functional; details: PC-3, 48 h, read-out: Activity
K562 = assay: Growth inhibition of human K562 cells assessed as cell growth at 10 uM incubated for 48 hrs by sulforhodamine B assay relative to control; format: functional; details: K562, 48 h, read-out: Activity
SF-268 = assay: Growth inhibition of human SF268 cells assessed as cell growth at 10 uM incubated for 48 hrs by sulforhodamine B assay relative to control; format: functional; details: SF-268, 48 h, read-out: Activity
EKVX = assay: Growth inhibition of human EKVX cells assessed as cell growth at 10 uM incubated for 48 hrs by sulforhodamine B assay relative to control; format: functional; details: read-out: Activity
MDA-MB-435 = assay: Growth inhibition of human MDA-MB-435 cells assessed as cell growth at 10 uM incubated for 48 hrs by sulforhodamine B assay relative to control; format: functional; details: MDA-MB-435, 48 h, read-out: Activity
NCI-H322M = assay: Growth inhibition of human NCI-H322M cells assessed as cell growth at 10 uM incubated for 48 hrs by sulforhodamine B assay relative to control; format: functional; details: read-out: Activity
U-251 = assay: Growth inhibition of human U251 cells assessed as cell growth at 10 uM incubated for 48 hrs by sulforhodamine B assay relative to control; format: functional; details: U-251, 48 h, read-out: Activity
HCT-15 = assay: Growth inhibition of human HCT15 cells assessed as cell growth at 10 uM incubated for 48 hrs by sulforhodamine B assay relative to control; format: functional; details: HCT-15, 48 h, read-out: Activity
MDA-MB-468 = assay: Growth inhibition of human MDA-MB-468 cells assessed as cell growth at 10 uM incubated for 48 hrs by sulforhodamine B assay relative to control; format: functional; details: MDA-MB-468, 48 h, read-out: Activity
SK-OV-3 = assay: Growth inhibition of human SKOV3 cells assessed as cell growth at 10 uM incubated for 48 hrs by sulforhodamine B assay relative to control; format: functional; details: SK-OV-3, 48 h, read-out: Activity
A498 = assay: Growth inhibition of human A498 cells assessed as cell growth at 10 uM incubated for 48 hrs by sulforhodamine B assay relative to control; format: functional; details: A498, 48 h, read-out: Activity
UACC-62 = assay: Growth inhibition of human UACC62 cells assessed as cell growth at 10 uM incubated for 48 hrs by sulforhodamine B assay relative to control; format: functional; details: UACC-62, 48 h, read-out: Activity
OVCAR-5 = assay: Growth inhibition of human OVCAR5 cells assessed as cell growth at 10 uM incubated for 48 hrs by sulforhodamine B assay relative to control; format: functional; details: OVCAR-5, 48 h, read-out: Activity
[1] = molecular target: Receptor tyrosine-protein kinase erbB-2 (Homo sapiens) (UniProt P04626); assay: Inhibition of recombinant human N-terminal GST-tagged HER2 (679 to 1255 residues) expressed in baculovirus infected Sf9 cells at 10 uM using poly[Glu:Tyr] (4:1) as substrate after 40 mins by Kinase-Glo plus luminescence assay relative to control
Chain of Receptor tyrosine-protein kinase erbB-2 (Homo sapiens) (P04626 whole entry, the tested form may be a part): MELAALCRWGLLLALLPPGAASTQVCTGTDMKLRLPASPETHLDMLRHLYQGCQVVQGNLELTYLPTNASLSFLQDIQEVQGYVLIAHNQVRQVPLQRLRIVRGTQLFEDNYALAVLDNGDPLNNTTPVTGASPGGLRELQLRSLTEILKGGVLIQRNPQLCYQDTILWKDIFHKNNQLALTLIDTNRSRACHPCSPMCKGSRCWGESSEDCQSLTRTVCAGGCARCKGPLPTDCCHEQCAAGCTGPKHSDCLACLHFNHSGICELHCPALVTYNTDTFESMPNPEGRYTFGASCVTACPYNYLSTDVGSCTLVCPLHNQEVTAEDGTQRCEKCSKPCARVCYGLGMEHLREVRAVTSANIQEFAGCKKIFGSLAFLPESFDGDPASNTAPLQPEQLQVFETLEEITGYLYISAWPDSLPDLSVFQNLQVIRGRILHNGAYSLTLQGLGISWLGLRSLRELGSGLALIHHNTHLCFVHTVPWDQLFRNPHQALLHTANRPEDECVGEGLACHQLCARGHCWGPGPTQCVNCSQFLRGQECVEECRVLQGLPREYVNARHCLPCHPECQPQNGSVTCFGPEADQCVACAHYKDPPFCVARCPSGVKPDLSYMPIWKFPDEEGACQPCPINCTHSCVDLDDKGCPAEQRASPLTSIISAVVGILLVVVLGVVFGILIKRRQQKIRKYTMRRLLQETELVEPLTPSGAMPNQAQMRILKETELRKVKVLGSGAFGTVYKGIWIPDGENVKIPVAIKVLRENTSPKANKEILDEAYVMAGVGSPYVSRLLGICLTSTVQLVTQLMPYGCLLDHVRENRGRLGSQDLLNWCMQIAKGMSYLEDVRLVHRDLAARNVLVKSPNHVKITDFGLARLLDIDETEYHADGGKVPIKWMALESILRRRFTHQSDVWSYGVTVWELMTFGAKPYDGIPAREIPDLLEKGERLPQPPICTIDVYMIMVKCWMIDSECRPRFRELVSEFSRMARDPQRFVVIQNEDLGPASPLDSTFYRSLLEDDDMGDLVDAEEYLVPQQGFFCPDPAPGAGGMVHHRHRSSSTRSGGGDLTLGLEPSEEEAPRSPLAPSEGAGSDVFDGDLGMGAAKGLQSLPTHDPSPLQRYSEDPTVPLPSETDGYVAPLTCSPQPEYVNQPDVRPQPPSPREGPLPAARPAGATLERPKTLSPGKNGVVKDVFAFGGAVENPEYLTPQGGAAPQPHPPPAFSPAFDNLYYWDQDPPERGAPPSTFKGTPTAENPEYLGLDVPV

SF-539 = assay: Growth inhibition of human SF539 cells assessed as cell growth at 10 uM incubated for 48 hrs by sulforhodamine B assay relative to control; format: functional; details: SF-539, 48 h, read-out: Activity
Hs-578T = assay: Growth inhibition of human Hs 578T cells assessed as cell growth at 10 uM incubated for 48 hrs by sulforhodamine B assay relative to control; format: functional; details: read-out: Activity
OVCAR-4 = assay: Growth inhibition of human OVCAR4 cells assessed as cell growth at 10 uM incubated for 48 hrs by sulforhodamine B assay relative to control; format: functional; details: OVCAR-4, 48 h, read-out: Activity
BT-549 = assay: Growth inhibition of human BT549 cells assessed as cell growth at 10 uM incubated for 48 hrs by sulforhodamine B assay relative to control; format: functional; details: BT-549, 48 h, read-out: Activity
RPMI-8226 = assay: Growth inhibition of human RPMI8226 cells assessed as cell growth at 10 uM incubated for 48 hrs by sulforhodamine B assay relative to control; format: functional; details: RPMI-8226, 48 h, read-out: Activity

Row | Structure (SMILES) | growth at 10 µM (M14) | growth at 10 µM (CAKI-1) | growth at 10 µM (Malme-3M) | growth at 10 µM (A549) | growth at 10 µM (SW-620) | growth at 10 µM (HCC 2998) | growth at 10 µM (CCRF-CEM) | growth at 10 µM (MOLT-4) | growth at 10 µM (MCF7) | growth at 10 µM (PC-3) | growth at 10 µM (K562) | growth at 10 µM (SF-268) | growth at 10 µM (EKVX) | growth at 10 µM (MDA-MB-435) | growth at 10 µM (NCI-H322M) | growth at 10 µM (U-251) | growth at 10 µM (HCT-15) | growth at 10 µM (MDA-MB-468) | growth at 10 µM (SK-OV-3) | growth at 10 µM (A498) | other results
1 | CCOC(=O)c1c(C)oc2ncnc(Nc3ccc(OCc4ccc(Cl)c(Cl)c4)cc3)c12 | 101% | 96.1% | 131% | 95.8% | 105% | 109% | 110% | 105% | 106% | 103% | 93.8% | 104% | 102% | 111% | 97.9% | 104% | 104% | 96.5% | 98.9% | 92.3% | growth at 10 µM (UACC-62): 93.2%; growth at 10 µM (OVCAR-5): 95%; inhibition [1]: 13%; growth at 10 µM (SF-539): 98.4%; growth at 10 µM (Hs-578T): 104%; growth at 10 µM (OVCAR-4): 121%; growth at 10 µM (BT-549): 94.9%; growth at 10 µM (RPMI-8226): 117%
2 | CCOC(=O)c1c(C)oc2ncnc(Nc3ccc(OCc4cccc(C)c4)cc3)c12 | 86.5% | 95.6% | 126% | 88.9% | 101% | 114% | 107% | 115% | 99.2% | 93.4% | 98% | 106% | 94.5% | 104% | 94% | 96.4% | 99.5% | 106% | 96.7% | 84.4% | growth at 10 µM (UACC-62): 80.7%; growth at 10 µM (OVCAR-5): 107%; inhibition [1]: 16%; growth at 10 µM (SF-539): 95.4%; growth at 10 µM (Hs-578T): 102%; growth at 10 µM (OVCAR-4): 105%; growth at 10 µM (BT-549): 106%; growth at 10 µM (RPMI-8226): 117%
3 | Cc1cccc(Nc2ncnc3oc(C)c(C(=O)NCCO)c23)c1 | 103% | 87.2% | 109% | 89.4% | 96% | 99.4% | 74% | 57.4% | 94.8% | 96.1% | 90.2% | 98.4% | 91.8% | 97.2% | 95% | 105% | 93.7% | 87% | 94.8% | 74.7% | growth at 10 µM (UACC-62): 83.1%; growth at 10 µM (OVCAR-5): 95.3%; growth at 10 µM (SF-539): 92.5%; growth at 10 µM (Hs-578T): 100%; growth at 10 µM (OVCAR-4): 95%; growth at 10 µM (BT-549): 90.7%; growth at 10 µM (RPMI-8226): 95.7%
4 | Cc1oc2ncnc(Nc3cccc(F)c3)c2c1C(=O)O | 112% | 93.8% | 107% | 101% | 101% | 102% | 110% | 102% | 97.6% | 108% | 98.5% | 96.3% | 101% | 104% | 109% | 106% | 101% | 104% | 102% | 90.5% | growth at 10 µM (UACC-62): 90.2%; growth at 10 µM (OVCAR-5): 97.6%; growth at 10 µM (SF-539): 92.5%; growth at 10 µM (Hs-578T): 99.9%; growth at 10 µM (OVCAR-4): 101%; growth at 10 µM (BT-549): 93.9%; growth at 10 µM (RPMI-8226): 107%
5 | Cc1oc2ncnc(Nc3ccccc3)c2c1C(=O)NCCO | 106% | 90.8% | 107% | 98.1% | 95.1% | 103% | 97.4% | -0.28% | 98.6% | 107% | 29.4% | 99.8% | 97.6% | 102% | 108% | 102% | 98% | 109% | 100% | 78.2% | growth at 10 µM (UACC-62): 86.2%; growth at 10 µM (OVCAR-5): 93.2%; growth at 10 µM (SF-539): 88.6%; growth at 10 µM (Hs-578T): 90.5%; growth at 10 µM (OVCAR-4): 103%; growth at 10 µM (BT-549): 90.1%; growth at 10 µM (RPMI-8226): 94.8%
6 | CCCNC(=O)c1c(C)oc2ncnc(Nc3cccc(Cl)c3)c12 | 115% | 101% | 121% | 82.7% | 106% | 123% | 93.9% | 95.4% | 93.5% | 81.9% | 90.1% | 95.5% | 98.8% | 103% | 103% | 90.9% | 101% | 81.7% | 85.6% | 74.3% | growth at 10 µM (UACC-62): 83.4%; growth at 10 µM (OVCAR-5): 112%; growth at 10 µM (SF-539): 99.1%; growth at 10 µM (Hs-578T): 104%; growth at 10 µM (OVCAR-4): 101%; growth at 10 µM (BT-549): 102%; growth at 10 µM (RPMI-8226): 95.4%
7 | Cc1cccc(Nc2ncnc3oc(C)c(C(=O)NCCN4CCOCC4)c23)c1 | 99.8% | 90.2% | 97.2% | 102% | 98.9% | 97.1% | 99.7% | 111% | 96.2% | 101% | 98.3% | 93.3% | 92.6% | 101% | 101% | 105% | 94.9% | 89.4% | 111% | 68.9% | growth at 10 µM (UACC-62): 84.6%; growth at 10 µM (OVCAR-5): 81.8%; growth at 10 µM (SF-539): 95.4%; growth at 10 µM (Hs-578T): 88.5%; growth at 10 µM (OVCAR-4): 110%; growth at 10 µM (BT-549): 90.7%; growth at 10 µM (RPMI-8226): 89.5%
